Data reported in paper PMC4982760, “Small-molecule inhibitors identify the RAD52-ssDNA interaction as critical for recovery from replication stress and for survival of BRCA2 deficient cells” (eLife, 2016).

Assays:
RAD52 = molecular target: T1, RAD52 (Homo sapiens, UniProt P43351); experiment: WaterLOGSY NMR binding to RAD52; settings: 20-40 μM compound, 3.3 μM RAD52
T1 construct: made in house
T1 sequence (P43351 1-418): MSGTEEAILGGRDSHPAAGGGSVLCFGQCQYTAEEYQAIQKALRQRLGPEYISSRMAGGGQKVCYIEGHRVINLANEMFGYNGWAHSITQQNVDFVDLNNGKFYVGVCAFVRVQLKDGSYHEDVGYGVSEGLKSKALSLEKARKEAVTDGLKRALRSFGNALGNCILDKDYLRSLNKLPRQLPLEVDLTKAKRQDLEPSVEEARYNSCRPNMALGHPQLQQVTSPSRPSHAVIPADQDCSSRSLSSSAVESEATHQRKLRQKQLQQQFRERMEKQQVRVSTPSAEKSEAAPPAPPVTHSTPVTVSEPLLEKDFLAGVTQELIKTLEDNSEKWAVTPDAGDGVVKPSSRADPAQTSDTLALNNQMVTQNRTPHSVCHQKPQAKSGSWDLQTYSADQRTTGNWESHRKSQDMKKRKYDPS
Excerpt: (§1) To confirm that the selected compounds bind RAD52, we employed water-ligand observation with gradient spectroscopy (WaterLOGSY), an NMR technique, which is based on transfer of magnetization from bulk water to the protein-bound compound of interest ([Dalvit et al., 2001], [2000]). In WaterLOGSY spectrum, if a compound binds to a protein, the compound will receive negative nuclear Overhauser effects (NOEs) due to the slow tumbling of the protein-compound complex, leading to a positive WaterLOGSY peak. […] Similarly, the binding of ‘6’to RAD52 is evident from the positive WaterLOGSY peaks that are clearly detected for this compound (Figure 3a).
(§2) Compound binding to RAD52 and RPA proteins was analyzed using water-ligand observation with gradient spectroscopy (WaterLOGSY) NMR experiments ([Dalvit et al., 2001], [2000]). The WaterLOGSY spectra of compounds in the presence of RAD52 or RPA were acquired using a water NOE mixing time of 1 s and a T2 relaxation filter of 50 ms just before data acquisition to suppress the broad signals derived from protein. The protein buffer used in the experiments contains 10 mM Tris-d11, 75 mM KCl, 0.25 mM EDTA, pH 7.5, and 10% D20. All NMR data were acquired on a Bruker Avance II 800 MHz NMR spectrometer equipped with a sensitive cryoprobe and recorded at 25°C. The ^1H chemical shifts were referenced to 2,2-dimethyl-2-silapentane-5-sulfonate (DSS). NMR spectra were processed using NMR Pipe ([Delaglio et al., 1995]) and analysed using NMR View ([Johnson and Blevins, 1994]).

RAD52-dsDNA interaction = molecular target: T2, RAD52-dsDNA interaction (Homo sapiens, UniProt P43351); experiment: FRET-based RAD52-dsDNA binding assay; settings: 1 nM dsDNA, 10 nM RAD52
T2 construct: made in house
T2 sequence (P43351 1-418): T1 sequence (P43351 1-418)

[1] = molecular target: T3, RAD52-RPA-Cy3-dT30-Cy5 complex (Homo sapiens, UniProt P43351); experiment: FRET-based RAD52 binding/wrapping of RPA-coated ssDNA
T3 construct: made in house
T3 sequence (P27694 whole entry partner, one chain of several): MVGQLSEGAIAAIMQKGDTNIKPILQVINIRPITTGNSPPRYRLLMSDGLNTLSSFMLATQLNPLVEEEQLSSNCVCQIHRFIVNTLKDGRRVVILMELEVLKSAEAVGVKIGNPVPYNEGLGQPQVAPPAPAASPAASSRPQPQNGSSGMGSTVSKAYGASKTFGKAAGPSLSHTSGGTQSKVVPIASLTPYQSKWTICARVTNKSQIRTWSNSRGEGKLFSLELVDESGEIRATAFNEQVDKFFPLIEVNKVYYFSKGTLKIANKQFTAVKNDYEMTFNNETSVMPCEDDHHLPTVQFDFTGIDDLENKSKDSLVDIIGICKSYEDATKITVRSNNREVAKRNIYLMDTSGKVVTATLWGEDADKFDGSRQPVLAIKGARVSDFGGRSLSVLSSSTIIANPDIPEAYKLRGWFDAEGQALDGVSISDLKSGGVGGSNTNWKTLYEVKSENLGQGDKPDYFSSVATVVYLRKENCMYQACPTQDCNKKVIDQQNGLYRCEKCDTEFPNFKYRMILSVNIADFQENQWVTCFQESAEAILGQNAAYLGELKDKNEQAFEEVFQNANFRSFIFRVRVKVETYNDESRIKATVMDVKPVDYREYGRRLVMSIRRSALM
T3 sequence (P15927 whole entry partner, one chain of several): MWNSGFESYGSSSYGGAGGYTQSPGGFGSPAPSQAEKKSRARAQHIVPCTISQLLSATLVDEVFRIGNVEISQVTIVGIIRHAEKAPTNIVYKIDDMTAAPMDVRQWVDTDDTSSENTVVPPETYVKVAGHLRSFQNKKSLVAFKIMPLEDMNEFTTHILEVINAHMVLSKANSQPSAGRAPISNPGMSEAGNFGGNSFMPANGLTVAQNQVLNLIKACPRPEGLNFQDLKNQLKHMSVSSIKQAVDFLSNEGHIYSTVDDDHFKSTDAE
T3 sequence (P35244 whole entry partner, one chain of several): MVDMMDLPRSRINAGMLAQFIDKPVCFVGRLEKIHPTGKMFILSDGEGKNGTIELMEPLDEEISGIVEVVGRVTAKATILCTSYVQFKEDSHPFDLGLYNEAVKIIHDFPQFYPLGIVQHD
Excerpt: The RPA-ssDNA complex is a physiologically relevant substrate for the RAD52-mediated strand annealing. […] RPA binds ssDNA with high affinity and extends the ssDNA to its contour length.
(§3) In all experiments, the FRET values for each data point were corrected for the effects of the compounds on the respective substrate in the absence of RAD52.

RPA = molecular target: T4, RPA (Homo sapiens, UniProt P15927+P27694+P35244); experiment: WaterLOGSY NMR binding to RPA; settings: 20-40 μM compound, 3.3 μM RPA
T4 construct: made in house
T4 sequence (P27694 whole entry): as the sequence (P27694 whole entry partner, one chain of several) above
T4 sequence (P15927 whole entry): as the sequence (P15927 whole entry partner, one chain of several) above
T4 sequence (P35244 whole entry): as the sequence (P35244 whole entry partner, one chain of several) above
Excerpt: as §1, §2

RAD52-ssDNA interaction = molecular target: T5, RAD52-ssDNA interaction (Homo sapiens, UniProt P43351); experiment: FRET-based ssDNA binding and wrapping assay (RAD52-Cy3-dT30-Cy5 complex); settings: 1 nM Cy3-dT30-Cy5, 8 nM RAD52, 25°C; read-out: IC50 (DNA binding), ssDNA
T5 construct: made in house
T5 sequence (P43351 1-418): T1 sequence (P43351 1-418)
Method: We titrated increasing amounts of each compound into a cuvette containing preformed stoichiometric RAD52-Cy3-dT30-Cy5 complexes (1 nM Cy3-dT30-Cy5 and 8 nM RAD52). […] At each concentration of the compound, the FRET signal was adjusted for the change in Cy3 and Cy5 fluorescence in the presence of the compound, but in the absence of protein.
FRET-based ssDNA binding, dsDNA binding, and annealing assays were carried out as previously described ([Grimme et al., 2010]; [Grimme and Spies, 2011]) using Cary Eclipse spectrofluorimeter (Varian) at 25°C in buffer containing 30 mM Tris-Acetate pH7.5, 1 mM DTT, and 0.1 mg/mL BSA. Cy3 dye was excited at 530 nm and its emission was monitored at 565 nm. Emission of Cy5 acceptor fluorophore excited through the energy transfer from Cy3 donor is monitored at 660 nm simultaneously with emission of Cy3 dye. Both the excitation and the emission slit widths were set to 10 nm.
All experiments were performed in triplicates, and the data are shown as averages and standard deviations for three independent measurements. To remove possible experimental artifacts associated with chromogenic or fluorogenic compounds, as well as with the compounds that may quench or enhance Cy3 or Cy5 fluorescence, we also performed control titrations whereby we titrated each compound into 1 nM Cy3-dT30-Cy5 in the absence of RAD52. For each compound concentration we subtracted the difference in the FRET signal in the presence and absence of the compound from the respective FRET signal in the presence of RAD52. The FRET signal corrected for the compound fluorescence was calculated using the equation: FRETapp=4.2∗ICy5/4.2∗ICy5+ 1.7∗ICy3
as previously described ([Grimme et al., 2010]; [Grimme and Spies, 2011]) and plotted as a function of compound concentration and fitted to the following inhibition model” FRET([small molecule])=FRET0−FRETmin/1+10^(LogIC50−Log([small molecule])∗HillSlope),
where FRET0 is the initial FRET value of the RAD52-ssDNA complex in the absence of the compound and FRETmin is the FRET value at complete inhibition. FRET values were calculated as an average of three or more independent annealing reactions plotted against the concentration of the compound. Inhibition of the RAD52-dsDNA interaction was assayed in a similar experiments, except the stoichiometric complexes containing 1 nM molecules of Cy3-Oligo28-Cy5 duplex DNA and 10 nM RAD52.

RPA-ssDNA interaction = molecular target: T6, RPA-ssDNA interaction (Homo sapiens, UniProt P15927+P27694+P35244); experiment: FRET titration of the RPA-Cy3-dT30-Cy5 complex; assay type: binding; settings: range of tested concentrations
T6 construct: made in house
T6 sequence (P27694 whole entry): as the sequence (P27694 whole entry partner, one chain of several) above
T6 sequence (P15927 whole entry): as the sequence (P15927 whole entry partner, one chain of several) above
T6 sequence (P35244 whole entry): as the sequence (P35244 whole entry partner, one chain of several) above
Excerpt: In the cell, ssDNA is typically found in complex with Replication protein A (RPA), the major eukaryotic ssDNA-binding protein essential for DNA replication, repair and recombination ([Wold, 1997]; [Oakley and Patrick, 2010]; [Chen and Wold, 2014]). The RPA-ssDNA complex is a physiologically relevant substrate for the RAD52-mediated strand annealing. […] RPA binds ssDNA with high affinity and extends the ssDNA to its contour length. In our assays such an extension manifests as a distinct FRET state of ~0.3, which is readily distinguished from a FRET state of ~0.48 of free Cy3-dT30-Cy5 ssDNA, as well as ~0.63 FRET of the stoichiometric ssDNA-RPA-RAD52 complex (see Figure 2—figure supplement 1 and ([Grimme and Spies, 2011]) for details). […] Both, however, inhibited the RAD52 binding to and wrapping of RPA-coated ssDNA with IC50 values identical to those determined without RPA (Figure 2e and Figure 3e).
as §3

Q: For `O=C(O[C@@H]1O[C@@H]2COC(=O)c3cc(O)c(O)c(O)c3-c3c(cc(O)c(O)c3O)C(=O)O[C@H]([C@H]1O)[C@@H]2O)c1cc(O)c(O)c(O)c1` [NP-004255, corilagin], which “binding to RAD52 (WaterLOGSY)” value (RAD52) is on record?
A: physically interacts with RAD52

Q: And the “effect on the RAD52-dsDNA interaction” value (RAD52-dsDNA interaction)?
A: had no effect on the RAD52-dsDNA interaction

Q: What about the IC50 [1] of the same molecule?
A: 500 ± 100 nM

Q: And the “binding to RPA (WaterLOGSY)” value (RPA)?
A: also bound RPA

Q: What about the IC50 (RAD52-ssDNA interaction) of the same molecule?
A: 1500 ± 200 nM

Q: What about the “effect on the RPA-ssDNA interaction” value (RPA-ssDNA interaction) of the same molecule?
A: did not affect the RPA-ssDNA complex
